Results from patent publication US6620828B2, “Thiazole compounds and pharmaceutical compositions for inhibiting protein kinases and methods for their use” (Agouron Pharmaceuticals, Inc., priority 1999, dated 2003).

Each molecule was assayed on human umbilical vein endothelial cells (HUVEC) (assay: HUVEC proliferation assay). Settings: Homo sapiens, HUVEC, 10 nM; crude combinatorial urea library; read-out: Inhibition of HUVEC Proliferation % inhibition @ 10 nM.
Format: cell-based
Protocol: HUVEC Proliferation Assay
This assay determines the ability of a test compound to inhibit the growth factor-stimulated proliferation of human umbilical vein endothelial cells (“HUVEC”). HUVEC cells (passage 3-4, Clonetics, Corp.) were thawed into EGM2 culture medium (Clonetics Corp) in T75 flasks. Fresh EGM2 medium was added to the flasks 24 hours later. Four or five days later, cells were exposed to another culture medium (F12K medium supplemented with 10% fetal bovine serum (FBS), 60 μg/ml endothelial cell growth supplement (ECGS), and 0.1 mg/ml heparin). Exponentially-growing HUVEC cells were used in experiments thereafter. Ten to twelve thousand HUVEC cells were plated in 96-well dishes in 100 μl of rich, culture medium (described above). The cells were allowed to attach for 24 hours in this medium. The medium was then removed by aspiration and 105 μl of starvation media (F12K+1% FBS) was added to each well. After 24 hours, 15 μl of test agent dissolved in 1% DMSO in starvation medium or this vehicle alone was added into each treatment well; the final DMSO concentration was 0.1%. One hour later, 30 μl of VEGF (30 ng/ml) in starvation media was added to all wells except those containing untreated controls; the final VEGF concentration was 6 ng/ml. Cellular proliferation was quantified 72 hours later by MTT dye reduction, at which time cells were exposed for 4 hours MTT (Promega Corp.). Dye reduction was stopped by addition of a stop solution (Promega Corp.) and absorbance at 595 λ was determined on a 96-well spectrophotometer plate reader.
IC50 values were calculated by curve-fitting the response of A^595 to various concentrations of the test agent; typically, seven concentrations separated by 0.5 log were employed, with triplicate wells at each concentration. For screening compound library plates, one or two concentrations (one well per concentration) were employed, and the % inhibition was calculated by the following formula:
% inhibition=(control−test) divided by (control−starvation) […]
control=A^595 when VEGF is present without test agent test=A^595 when VEGF is present with test agent starvation=A^595 when VEGF and test agent are both absent.

Compound | inhibition at 0.01 µM
COc1cccc(C(=O)Nc2cccc(-c3csc(-c4sc(NC(=O)NCC(C)O)nc4N)n3)c2)c1 (stereo not shown) | 7%
COCC(C)NC(=O)Nc1nc(N)c(-c2nc(-c3cccc(NC(=O)c4cccc(OC)c4)c3)cs2)s1 (stereo not shown) | 8%
COc1cccc(C(=O)Nc2cccc(-c3csc(-c4sc(NC(=O)NCc5ccccn5)nc4N)n3)c2)c1 | -5%
COc1cccc(C(=O)Nc2cccc(-c3csc(-c4sc(NC(=O)NCc5cccnc5)nc4N)n3)c2)c1 | 3%
COc1cccc(C(=O)Nc2cccc(-c3csc(-c4sc(NC(=O)NCc5ccncc5)nc4N)n3)c2)c1 | -2%
COc1cccc(C(=O)Nc2cccc(-c3csc(-c4sc(NC(=O)NCC(O)CO)nc4N)n3)c2)c1 (stereo not shown) | -3%
COc1cccc(C(=O)Nc2cccc(-c3csc(-c4sc(NC(=O)NC(C)CO)nc4N)n3)c2)c1 (stereo not shown) | -3%
COc1cccc(C(=O)Nc2cccc(-c3csc(-c4sc(NC(=O)NCCCN(C)C)nc4N)n3)c2)c1 | -8%
COc1cccc(C(=O)Nc2cccc(-c3csc(-c4sc(NC(=O)NCCN(C)C)nc4N)n3)c2)c1 | -11%
COc1cccc(C(=O)Nc2cccc(-c3csc(-c4sc(NC(=O)NCC(C)(C)N)nc4N)n3)c2)c1 | 14%

Same assay, conditions: Homo sapiens, HUVEC, 50 nM; crude combinatorial urea library; read-out: Inhibition of HUVEC Proliferation % inhibition @ 50 nM

Compound | inhibition at 0.05 µM
COc1cccc(C(=O)Nc2cccc(-c3csc(-c4sc(NC(=O)NCC(C)O)nc4N)n3)c2)c1 (stereo not shown) | 126%
COCC(C)NC(=O)Nc1nc(N)c(-c2nc(-c3cccc(NC(=O)c4cccc(OC)c4)c3)cs2)s1 (stereo not shown) | 42%
COc1cccc(C(=O)Nc2cccc(-c3csc(-c4sc(NC(=O)NCc5ccccn5)nc4N)n3)c2)c1 | 103%
COc1cccc(C(=O)Nc2cccc(-c3csc(-c4sc(NC(=O)NCc5cccnc5)nc4N)n3)c2)c1 | 105%
COc1cccc(C(=O)Nc2cccc(-c3csc(-c4sc(NC(=O)NCc5ccncc5)nc4N)n3)c2)c1 | 116%
COc1cccc(C(=O)Nc2cccc(-c3csc(-c4sc(NC(=O)NCC(O)CO)nc4N)n3)c2)c1 (stereo not shown) | 42%
COc1cccc(C(=O)Nc2cccc(-c3csc(-c4sc(NC(=O)NC(C)CO)nc4N)n3)c2)c1 (stereo not shown) | 42%
COc1cccc(C(=O)Nc2cccc(-c3csc(-c4sc(NC(=O)NCCCN(C)C)nc4N)n3)c2)c1 | 15%
COc1cccc(C(=O)Nc2cccc(-c3csc(-c4sc(NC(=O)NCCN(C)C)nc4N)n3)c2)c1 | 46%
COc1cccc(C(=O)Nc2cccc(-c3csc(-c4sc(NC(=O)NCC(C)(C)N)nc4N)n3)c2)c1 | 3%

Same assay, conditions: Homo sapiens, HUVEC, Inhibition of HUVEC Proliferation; 50 nM; crude combinatorial urea library; read-out: % inhibition @ 50 nM

Compound | inhibition at 0.05 µM
CCN(CC)CCNC(=O)Nc1nc(N)c(-c2nc(-c3cc(NC(=O)c4cccc(OC)c4)c(F)cc3F)cs2)s1 | 40%
COc1cccc(C(=O)Nc2cc(-c3csc(-c4sc(NC(=O)NC5CC(C)(C)NC(C)(C)C5)nc4N)n3)c(F)cc2F)c1 | 89%
COc1cccc(C(=O)Nc2cc(-c3csc(-c4sc(NC(=O)NCCc5ccc(N)cc5)nc4N)n3)c(F)cc2F)c1 | 65%
COc1cccc(C(=O)Nc2cc(-c3csc(-c4sc(NC(=O)NCCCN5CCOCC5)nc4N)n3)c(F)cc2F)c1 | 81%
CCN(CC)CCCNC(=O)Nc1nc(N)c(-c2nc(-c3cc(NC(=O)c4cccc(OC)c4)c(F)cc3F)cs2)s1 | 89%
COc1cccc(C(=O)Nc2cc(-c3csc(-c4sc(NC(=O)NCC(N)=O)nc4N)n3)c(F)cc2F)c1 | 48%
COc1cccc(C(=O)Nc2cc(-c3csc(-c4sc(NC(=O)NCC(C)C)nc4N)n3)c(F)cc2F)c1 | 38%
COc1cccc(C(=O)Nc2cc(-c3csc(-c4sc(NC(=O)NCCc5cccnc5)nc4N)n3)c(F)cc2F)c1 | 100%
COc1cccc(C(=O)Nc2cc(-c3csc(-c4sc(NC(=O)NCCO)nc4N)n3)c(F)cc2F)c1 | 110%
COc1cccc(C(=O)Nc2cc(-c3csc(-c4sc(NC(=O)N[C@@H](CC(N)=O)C(N)=O)nc4N)n3)c(F)cc2F)c1 | 32%
CNC(=O)CNC(=O)Nc1nc(N)c(-c2nc(-c3cc(NC(=O)c4cccc(OC)c4)c(F)cc3F)cs2)s1 | 73%
COc1cccc(C(=O)Nc2cc(-c3csc(-c4sc(NC(=O)NCCc5cncn5C)nc4N)n3)c(F)cc2F)c1 | 58%
CCN1CCCC1CNC(=O)Nc1nc(N)c(-c2nc(-c3cc(NC(=O)c4cccc(OC)c4)c(F)cc3F)cs2)s1 (stereo not shown) | 85%
COc1cccc(C(=O)Nc2cc(-c3csc(-c4sc(NC(=O)NC(C)CN(C)C)nc4N)n3)c(F)cc2F)c1 (stereo not shown) | 64%
COc1cccc(C(=O)Nc2cc(-c3csc(-c4sc(NC(=O)NCCCN5CCCC5)nc4N)n3)c(F)cc2F)c1 | 92%
COc1cccc(C(=O)Nc2cc(-c3csc(-c4sc(NC(=O)NCCN(C(C)C)C(C)C)nc4N)n3)c(F)cc2F)c1 | 82%
COc1cccc(C(=O)Nc2cc(-c3csc(-c4sc(NC(=O)NCCCN5CCN(C)CC5)nc4N)n3)c(F)cc2F)c1 | 95%
COc1cccc(C(=O)Nc2cc(-c3csc(-c4sc(NC(=O)NCCN5CCNC5=O)nc4N)n3)c(F)cc2F)c1 | 78%
COc1cccc(C(=O)Nc2cc(-c3csc(-c4sc(NC(=O)NCCC(N)=O)nc4N)n3)c(F)cc2F)c1 | 48%
CCN(CC)CCCC(C)NC(=O)Nc1nc(N)c(-c2nc(-c3cc(NC(=O)c4cccc(OC)c4)c(F)cc3F)cs2)s1 (stereo not shown) | 84%
COc1cccc(C(=O)Nc2cc(-c3csc(-c4sc(NC(=O)NCCCCN(C)C)nc4N)n3)c(F)cc2F)c1 | 30%

Compound | inhibition at 0.05 µM
COc1cccc(C(=O)Nc2cc(-c3csc(-c4sc(NC(=O)NCCCCCCN(C)C)nc4N)n3)c(F)cc2F)c1 | 83%
COc1cccc(C(=O)Nc2cc(-c3csc(-c4sc(NC(=O)NCC(C)N(C)C)nc4N)n3)c(F)cc2F)c1 (stereo not shown) | 22%
COc1cccc(C(=O)Nc2cc(-c3csc(-c4sc(NC(=O)NCCCN5CCCCCC5)nc4N)n3)c(F)cc2F)c1 | 86%
COc1cccc(C(=O)Nc2cc(-c3csc(-c4sc(NC(=O)NCCCN5CCCCC5)nc4N)n3)c(F)cc2F)c1 | 89%
COc1cccc(C(=O)Nc2cc(-c3csc(-c4sc(NC(=O)NC5CCS(=O)(=O)C5)nc4N)n3)c(F)cc2F)c1 (stereo not shown) | 100%
COc1cccc(C(=O)Nc2cc(-c3csc(-c4sc(NC(=O)NCCC(=O)NCC(=O)O)nc4N)n3)c(F)cc2F)c1 | 57%
COc1cccc(C(=O)Nc2cc(-c3csc(-c4sc(NC(=O)NCC#N)nc4N)n3)c(F)cc2F)c1 | 71%
COc1cccc(C(=O)Nc2cc(-c3csc(-c4sc(NC(=O)NCC(=O)NO)nc4N)n3)c(F)cc2F)c1 | 19%
COc1cccc(C(=O)Nc2cc(-c3csc(-c4sc(NC(=O)NCC(=O)O)nc4N)n3)c(F)cc2F)c1 | 23%
COc1cccc(C(=O)Nc2cc(-c3csc(-c4sc(NC(=O)NCCS(=O)(=O)O)nc4N)n3)c(F)cc2F)c1 | 27%
CCC(O)CNC(=O)Nc1nc(N)c(-c2nc(-c3cc(NC(=O)c4cccc(OC)c4)c(F)cc3F)cs2)s1 (stereo not shown) | 104%
COc1cccc(C(=O)Nc2cc(-c3csc(-c4sc(NC(=O)NCC(C)(C)CO)nc4N)n3)c(F)cc2F)c1 | 120%
CCN1CC(NC(=O)Nc2nc(N)c(-c3nc(-c4cc(NC(=O)c5cccc(OC)c5)c(F)cc4F)cs3)s2)CN1CC | 82%
CCN(CCNC(=O)Nc1nc(N)c(-c2nc(-c3cc(NC(=O)c4cccc(OC)c4)c(F)cc3F)cs2)s1)c1cccc(C)c1 | 18%
COc1cccc(C(=O)Nc2cc(-c3csc(-c4sc(NC(=O)NCC(=N)N)nc4N)n3)c(F)cc2F)c1 | 17%
COc1cccc(C(=O)Nc2cc(-c3csc(-c4sc(NC(=O)NCC(C)(C)C)nc4N)n3)c(F)cc2F)c1 | 43%
COc1cccc(C(=O)Nc2cc(-c3csc(-c4sc(NC(=O)NCC5(O)CCCCC5)nc4N)n3)c(F)cc2F)c1 | 72%
COc1cccc(C(=O)Nc2cc(-c3csc(-c4sc(NC(=O)NCCc5c[nH]cn5)nc4N)n3)c(F)cc2F)c1 | 55%
COc1cccc(C(=O)Nc2cc(-c3csc(-c4sc(NC(=O)NCS(=O)(=O)O)nc4N)n3)c(F)cc2F)c1 | 0%
COc1cccc(C(=O)Nc2cc(-c3csc(-c4sc(NC(=O)NCCCN(C)c5ccccc5)nc4N)n3)c(F)cc2F)c1 | 45%
